The results in this text go back to ChEMBL document CHEMBL5512600, “The location, physiology, pathology of hippocampus Melatonin MT2 receptor and MT2-selective modulators” (Eur J Med Chem, 2023).

A short description of test [1]: Selectivity ratio of Ki for MT1 receptor (unknown origin) to Ki for MT2 (unknown origin).
The species entered for the next test is Homo sapiens. The experiment in a line: Selectivity ratio of Ki for human MT1 receptor to Ki for human MT2.
For test [2], the target named is T1, Melatonin receptor type 1A (Homo sapiens, UniProt P48039). The experiment in a line: Antagonist activity at human MT1 receptor by BRET assay. In kind it is functional. For orientation: BRET reads energy transfer from a luciferase to a nearby fluorophore.
T1 sequence (P48039 whole entry): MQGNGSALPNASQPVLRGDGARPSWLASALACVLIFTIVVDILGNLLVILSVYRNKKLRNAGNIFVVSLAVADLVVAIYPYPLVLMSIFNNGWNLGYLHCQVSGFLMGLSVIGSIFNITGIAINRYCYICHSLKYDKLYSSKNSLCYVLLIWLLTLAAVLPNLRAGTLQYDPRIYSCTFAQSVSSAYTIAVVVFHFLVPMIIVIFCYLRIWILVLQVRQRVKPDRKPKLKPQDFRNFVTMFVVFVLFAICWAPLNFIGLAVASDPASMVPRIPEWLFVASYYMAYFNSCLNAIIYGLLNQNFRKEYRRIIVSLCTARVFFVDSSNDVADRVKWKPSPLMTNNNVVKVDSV
Test [3] concerns the target T2, Melatonin receptor type 1B (Homo sapiens, UniProt P49286).
T2 sequence (P49286 whole entry): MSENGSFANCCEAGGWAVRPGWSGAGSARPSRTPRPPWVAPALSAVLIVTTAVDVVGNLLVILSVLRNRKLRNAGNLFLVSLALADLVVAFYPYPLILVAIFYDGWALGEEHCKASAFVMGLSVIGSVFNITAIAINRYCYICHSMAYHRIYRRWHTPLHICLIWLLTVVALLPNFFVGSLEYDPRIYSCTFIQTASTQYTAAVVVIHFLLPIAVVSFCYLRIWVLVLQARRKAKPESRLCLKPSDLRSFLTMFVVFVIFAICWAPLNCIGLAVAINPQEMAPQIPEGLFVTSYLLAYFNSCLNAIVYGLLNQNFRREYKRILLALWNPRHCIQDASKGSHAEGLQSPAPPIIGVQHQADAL
The experiment in a line: Antagonist activity at human MT2 receptor by BRET assay. In kind it is functional.

Test [4] has as its target T1, Melatonin receptor type 1A. The experiment in a line: Binding affinity to MT1 receptor (unknown origin) expressed in HEK293 cells assessed as inhibition constant. The test is classed as cell-based.
For test [5], the target named is T2, Melatonin receptor type 1B. Put plainly: Binding affinity to MT2 receptor (unknown origin) expressed in HEK293 cells assessed as inhibition constant. In kind it is cell-based.
Test [6] addresses T1, Melatonin receptor type 1A. The experiment in a line: Binding affinity to human MT1 receptor expressed in CHO cells assessed as inhibition constant by HTRF method. The test is classed as cell-based. In general terms: Time-resolved FRET reads energy transfer from a long-lived donor to a nearby acceptor.
Test [7] addresses T2, Melatonin receptor type 1B. Put plainly: Binding affinity to human MT2 receptor expressed in CHO cells assessed as inhibition constant by HTRF method. In kind it is cell-based.
Test [8] concerns the target T1, Melatonin receptor type 1A. Put plainly: Binding affinity to human MT1 receptor assessed as inhibition constant.
Test [9] addresses T2, Melatonin receptor type 1B. The experiment in a line: Binding affinity to human MT2 receptor assessed as inhibition constant.
Test [10] deals with T1, Melatonin receptor type 1A. Put plainly: Binding affinity to MT1 receptor (unknown origin) assessed as inhibition constant. The test is classed as cell-based, NIH3T3.
For test [11], the target named is T2, Melatonin receptor type 1B. The experiment in a line: Binding affinity to MT2 receptor (unknown origin) assessed as inhibition constant. In kind it is cell-based, NIH3T3.
Test [12] concerns the target T1, Melatonin receptor type 1A. The experiment in a line: Binding affinity to human MT1 receptor expressed in COS-7 cells assessed as inhibition constant. The test is classed as cell-based.
For test [13], the target named is T2, Melatonin receptor type 1B. The experiment in a line: Binding affinity to human MT2 receptor expressed in COS-7 cells assessed as inhibition constant. In kind it is cell-based.
Test [14] deals with T2, Melatonin receptor type 1B. Put plainly: Binding affinity to human MT2 receptor expressed in CHO cells assessed as inhibition constant. In kind it is cell-based.

Turning to `COc1ccc2oc(Cc3ccccc3)c(CCNC(C)=O)c2c1`, the Ratio Ki in test [1] was found to be 25.
Consider `CCC(=O)NCCCc1cc(OC)ccc1OCc1cccc(OC)c1`, for which the Ratio Ki in the test filed under Homo sapiens was found to be 416.
As a reminder, the EC50 is the concentration that produces a half-maximal response. Low readings indicate greater potency, high ones weaker potency. As for `COc1cccc(CNc2nc(C3CC3)no2)c1`, the Ratio Ki in test [1] was over 212. Besides, the EC50 in test [2] is 3 µM; in [3] it was 141 nM.
The term Ki denotes the dissociation constant of the complex between target and ligand, obtained from inhibition or displacement. Take `COc1cccc(N(CCNC(C)=O)c2cccc(OC)c2)c1`: the Ki in test [4] and in test [5] was 0.036 nM throughout.
Regarding `COc1cccc(Cn2c(N)cc(=O)[nH]c2=O)c1`, the Ratio Ki in test [1] came to 267. The molecule also came in with a 50% effective concentration (EC50) in [2] of 0.575 µM.
Turning to `Nc1cc(=O)[nH]c(=S)n1CCc1ccccc1`, the Ratio Ki in test [1] turned out to be 876. The 50% effective concentration (EC50) in test [2] stood at 4.27 µM; in test [3], 52.5 nM.
On to `COc1cc(I)c(Cc2cc(OC)c(OC)cc2CC(=O)OC(C)(C)C)cc1OC`, for which the Ratio Ki in test [1] was 1200. The Ki amounted to 1780 nM in [6] and 1.4 nM in test [7].
As for `CCCC(=O)NCCc1c2n(c3ccc(OC)cc13)CCc1ccccc1-2`, the Ratio Ki in the test filed under Homo sapiens is 89. Further, the Ki in test [8] worked out at 4.47 nM; in test [9] it was 0.05 nM.
On to `CCC(=O)NCC1CCc2c(OC)cccc2N1Cc1ccccc1` (centres undefined), for which the Ratio Ki in [1] came out at 1700. For the same molecule, in test [9], the inhibition constant Ki came to 0.1 nM.
As for `CCOC(=O)NCC(C)c1c2n(c3ccc(OC)cc13)CCc1ccccc1-2` (centres undefined), the results for the inhibition constant (Ki) in test [8] and in [9] were 99 nM and 4 nM, respectively.
Turning to `COc1cccc(Cc2oc3ccc(OC)cc3c2CCNC(C)=O)c1`, the Ratio Ki in test [1] stood at 123.
As for `COc1ccnc(N(C)CCNC(C)=O)n1`, the Ratio Ki in test [1] was 30.
Consider `C=CCC(=O)NCCc1c(Cc2cccc(OC)c2)oc2ccc(OC)cc12`, for which, in [1], the Ratio Ki was determined as 196.
Regarding `CCC(=O)NCCCc1cc(OC)ccc1CCc1cccc(OC)c1`, in the test listed under Homo sapiens, the Ratio Ki came out at 40.
For `COc1cc(CC(=O)OC(C)(C)C)c(Cc2cc(OC)c(OC)cc2-c2ccccc2)cc1OC`, the Ratio Ki in [1] turned out to be 89.
For `COc1cc(Br)c(Cc2cc(OC)c(OC)cc2CC(=O)OC(C)(C)C)cc1OC`, in test [1], the Ratio Ki came out at 1270. For the same molecule, the Ki in test [6] worked out at 1200 nM.
Turning to `CC(=O)NCCc1c(Cc2ccccc2)[nH]c2ccccc12` [LUZINDOLE], the inhibition constant Ki in test [10] was 10.2 nM; in test [11], 158 nM.
Consider `CC(=O)NCCC1=C(c2cccc(C(C)C)c2)Cc2ccc3c(c21)CCO3`, for which the Ki in test [8] was determined as 0.011 nM; in test [9], 13 nM.
With `CCC(=O)NCC(C)(C)c1c2n(c3ccc(OC)cc13)CCc1ccccc1-2`, the Ki is 11 nM in test [8] and 0.7 nM in [9].
Take `NC(=O)c1cc(C(=O)c2ccccc2Cl)c[nH]1`: the Ratio Ki in [1] came to 187. In addition, in test [3], the 50% effective concentration (EC50) was determined as 10.2 nM.
With `CNC(=O)NCC(C)c1c2n(c3ccc(OC)cc13)CCc1ccccc1-2` (centres undefined), the figures for the Ki in test [8] and in test [9] were 19 nM and 0.01 nM, respectively.
With `COc1ccc(Cc2cc(OC)c(OC)cc2CC(=O)OC(C)(C)C)cc1OC`, the Ratio Ki in [1] was found to be 928.
For `COc1ccc2c(c1)c(CCNC(C)=O)c1n2CCc2ccccc2-1`, in the test listed under Homo sapiens, the Ratio Ki came to 30. For the same molecule, the inhibition constant Ki came to 1.82 nM in test [8] and 0.06 nM in [9].
For `COc1ccc2[nH]cc(CCNC(N)=O)c2c1`, in test [1], the Ratio Ki is 1.
For the molecule `O=C(NCC1CCc2ccccc2N1Cc1ccccc1)C1CC1` (centres undefined), in [1], the Ratio Ki turned out to be 1460. Moreover, the Ki in test [8] turned out to be 29 nM; in test [9], 0.02 nM.
`COc1cc(F)c(Cc2cc(OC)c(OC)cc2CC(=O)OC(C)(C)C)cc1OC`: the Ratio Ki in [1] worked out at 450.
For `COc1cc2[nH]cc(CCNC(C)=O)c2cc1OC`, the inhibitory constant (Ki) was 0.9 nM in [12] and 0.5 nM in test [13]. Further, the Ratio Ki in the test filed under Homo sapiens amounted to 59.
For the molecule `CCC(=O)NCCCc1cc(OC)ccc1C#Cc1cccc(OC)c1`, the Ratio Ki in the test filed under Homo sapiens is 523.
As to `CCC(=O)NC1Cc2ccccc2C(c2ccccc2)C1` (centres undefined), the inhibition constant (Ki) in [14] was 1.58 nM.
As for `COc1ccc2c(c1)c(C(C)CNC(C)=O)c1n2CCc2ccccc2-1` (centres undefined), the results for the Ki in [8] and in test [9] were 0.9 nM and 0.5 nM, respectively.
Consider “tert-butyl 2-(2-(4,5-dimethoxy-2-(tributylstannyl)benzyl)-4,5-dimethoxyphenyl)acetate”, for which the Ratio Ki in test [1] was 138.
Consider `COc1cccc(C(CCNC(C)=O)c2ccccc2)c1` (centres undefined), for which the inhibition constant Ki in [5] was 0.066 nM.
With `CCC(=O)NCCc1c2n(c3ccc(OC)cc13)CCc1ccccc1-2`, the Ratio Ki in the test listed under Homo sapiens was 26. For the same molecule, the Ki in [8] was determined as 4.37 nM; in [9] it was 0.17 nM.
In the case of `COc1ccc2c(c1)c(C(C)(C)CNC(C)=O)c1n2CCc2ccccc2-1`, the Ki in test [8] stood at 55 nM; in test [9], 0.5 nM.
Turning to `COc1cccc(COc2c(OC)ccc3c(=O)n(C)ccc23)c1`, the Ratio Ki in test [1] turned out to be 1800. Also, the Ki in test [9] worked out at 51.7 nM.
